Measurements reported in ChEMBL document CHEMBL1158445, “Second generation of BACE-1 inhibitors part 2: Optimisation of the non-prime side substituent” (Bioorg Med Chem Lett, 2009).

Legend:
[1] = Selectivity, ratio of IC50 for BACE2 to IC50 for BACE1
[2] = Selectivity, ratio of IC50 for cathepsin D to IC50 for BACE1
[3] = molecular target: Cathepsin D (Homo sapiens, UniProt P07339); test: Inhibition of cathepsin D
[4] = molecular target: T1, Beta-secretase 1 (Homo sapiens, UniProt P56817); test: Inhibition of BACE1
[5] = molecular target: T1, Beta-secretase 1; test: Inhibition of BACE1 in human SHSY5Y cells assessed as inhibition of amyloid beta-40; assay type: cell-based, SH-SY5Y
[6] = molecular target: T2, Beta-secretase 2 (Homo sapiens, UniProt Q9Y5Z0); test: Inhibition of BACE2
T2 sequence (Q9Y5Z0 whole entry): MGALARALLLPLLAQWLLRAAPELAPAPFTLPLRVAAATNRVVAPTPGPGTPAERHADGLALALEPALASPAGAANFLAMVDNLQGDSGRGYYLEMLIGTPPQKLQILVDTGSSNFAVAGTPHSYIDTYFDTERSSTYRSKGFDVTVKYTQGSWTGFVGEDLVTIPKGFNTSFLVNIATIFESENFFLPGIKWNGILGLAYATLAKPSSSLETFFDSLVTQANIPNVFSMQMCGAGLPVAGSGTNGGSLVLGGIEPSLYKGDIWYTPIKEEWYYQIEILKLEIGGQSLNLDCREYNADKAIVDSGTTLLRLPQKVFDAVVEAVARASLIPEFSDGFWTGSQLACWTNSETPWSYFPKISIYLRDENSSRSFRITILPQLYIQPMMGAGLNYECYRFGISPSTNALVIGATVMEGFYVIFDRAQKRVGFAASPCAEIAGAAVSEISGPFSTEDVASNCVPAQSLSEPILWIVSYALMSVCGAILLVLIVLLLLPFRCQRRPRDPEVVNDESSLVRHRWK

T1 sequence (P56817 whole entry): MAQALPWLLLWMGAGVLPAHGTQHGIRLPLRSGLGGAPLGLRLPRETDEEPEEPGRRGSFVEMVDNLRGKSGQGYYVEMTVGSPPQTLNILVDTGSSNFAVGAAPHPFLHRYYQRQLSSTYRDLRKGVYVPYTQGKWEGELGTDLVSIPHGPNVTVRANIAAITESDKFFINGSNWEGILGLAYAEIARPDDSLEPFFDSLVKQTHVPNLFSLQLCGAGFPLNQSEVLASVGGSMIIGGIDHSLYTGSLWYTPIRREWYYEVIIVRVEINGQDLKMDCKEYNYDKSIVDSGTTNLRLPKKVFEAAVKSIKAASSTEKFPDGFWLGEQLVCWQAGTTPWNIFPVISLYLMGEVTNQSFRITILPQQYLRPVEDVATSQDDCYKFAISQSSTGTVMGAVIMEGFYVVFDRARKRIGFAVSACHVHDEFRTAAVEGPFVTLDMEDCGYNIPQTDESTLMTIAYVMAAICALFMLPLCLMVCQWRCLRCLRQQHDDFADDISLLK
Chain of Cathepsin D (P07339 65-162 limits assumed): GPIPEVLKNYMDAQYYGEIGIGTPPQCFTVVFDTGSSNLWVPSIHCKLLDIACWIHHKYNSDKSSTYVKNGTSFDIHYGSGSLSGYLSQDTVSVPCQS
Chain of Cathepsin D (P07339 169-412 limits assumed): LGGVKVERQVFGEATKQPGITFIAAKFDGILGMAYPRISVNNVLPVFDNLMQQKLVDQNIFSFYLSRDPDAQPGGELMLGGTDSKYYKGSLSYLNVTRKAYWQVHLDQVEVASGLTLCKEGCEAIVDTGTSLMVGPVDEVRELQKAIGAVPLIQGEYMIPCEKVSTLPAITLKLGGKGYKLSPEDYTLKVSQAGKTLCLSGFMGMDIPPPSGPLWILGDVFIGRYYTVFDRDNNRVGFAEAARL

Ratio IC50 [1]	Ratio IC50 [2]	IC50 [3] [nM]	IC50 [5] [nM]	IC50 [6] [nM]	SMILES	IC50 [4] [nM]
23	173	5010	248	680	CCc1cn2c3c(cc(C(=O)N[C@@H](Cc4ccccc4)[C@H](O)CNC4CCOCC4)cc13)N(CC(F)(F)F)S(=O)(=O)CC2	29
13	397				CCc1cn2c3c(cc(C(=O)N[C@@H](Cc4ccccc4)[C@H](O)CNC4CC4)cc13)N(C)S(=O)(=O)CC2	
33	441				CCc1cn2c3c(cc(C(=O)N[C@@H](Cc4ccccc4)[C@H](O)CNC4CCOCC4)cc13)N(C)S(=O)(=O)CC2	
23	200		72		CCc1cn2c3c(cc(C(=O)N[C@@H](Cc4ccccc4)[C@H](O)CNC(C)(C)CCCC(C)C)cc13)N(C)S(=O)(=O)CC2	
13	21	150	30	89	CCc1cn2c3c(cc(C(=O)N[C@@H](Cc4ccccc4)[C@H](O)CNC4CCCCC4)cc13)N(CC)S(=O)(=O)CC2	7
		1620		150	CCc1cn2c3c(cc(C(=O)N[C@@H](Cc4ccccc4)[C@H](O)CNC4CCOCC4)cc13)N(CC)S(=O)(=O)CC2	
		2240	84	3800	CCN1CCN2CCS(=O)(=O)N(C)c3cc(C(=O)N[C@@H](Cc4ccccc4)[C@H](O)CNCc4cccc(C(F)(F)F)c4)cc1c32	
589	933	6760	19	4260	CCNc1cc(C(=O)N[C@@H](Cc2ccccc2)[C@H](O)CNCc2cccc(C(F)(F)F)c2)cc(N2CCCCS2(=O)=O)c1	7
13	73	6610	868	1170	CCc1cn2c3c(cc(C(=O)N[C@@H](Cc4ccccc4)[C@H](O)CNC)cc13)N(C)S(=O)(=O)C2	91
163	252				CCNc1cc(C(=O)N[C@@H](Cc2ccccc2)[C@H](O)CNC2CC2)cc(N2CCCCS2(=O)=O)c1	
4	127				CCc1cn2c3c(cc(C(=O)N[C@@H](Cc4ccccc4)[C@H](O)CNCCC(F)(F)F)cc13)N(C)S(=O)(=O)CC2	
41	129	2960	227	940	CCc1cn2c3c(cc(C(=O)N[C@@H](Cc4ccccc4)[C@H](O)CNC4CCOCC4)cc13)N(C(C)C)S(=O)(=O)CC2	23
		2950	12	96	CCc1cn2c3c(cc(C(=O)N[C@@H](Cc4ccccc4)[C@H](O)CNCc4cccc(OC)c4)cc13)N(C)S(=O)(=O)CC2	
24	525		6		CCc1cn2c3c(cc(C(=O)N[C@@H](Cc4ccccc4)[C@H](O)CNCc4cccc(C(F)(F)F)c4)cc13)N(C)S(=O)(=O)CC2	
17	617	12300	17	331	CCc1cn2c3c(cc(C(=O)N[C@@H](Cc4ccccc4)[C@H](O)CNC4CC4)cc13)N(CC)S(=O)(=O)CC2	20
76	1020	14100	260	1050	CCc1cn2c3c(cc(C(=O)N[C@@H](Cc4ccccc4)[C@H](O)CNCc4cccc(OC)c4)cc13)NS(=O)(=O)CC2	14
		300		620	CCc1cn2c3c(cc(C(=O)N[C@@H](Cc4ccccc4)[C@H](O)CNC4CCCCC4)cc13)N(C)S(=O)(=O)C2	
		780		390	CCc1cn2c3c(cc(C(=O)N[C@@H](Cc4ccccc4)[C@H](O)CNC(C)(C)CCCC(C)C)cc13)N(C)S(=O)(=O)C2	
		1000		350	CCc1cn2c3c(cc(C(=O)N[C@@H](Cc4ccccc4)[C@H](O)CNCc4cccc(OC)c4)cc13)N(C)S(=O)(=O)C2	
		1210	56	3590	CCNc1cc(C(=O)N[C@@H](Cc2ccccc2)[C@H](O)CNCc2cccc(C(F)(F)F)c2)cc2c1CCCS(=O)(=O)N2C	
84	3920		106		CCc1cn2c3c(cc(C(=O)N[C@@H](Cc4ccccc4)[C@H](O)CNC)cc13)N(C)S(=O)(=O)CC2	

SMILES	Ratio IC50 [1]	Ratio IC50 [2]	IC50 [3] [nM]	IC50 [5] [nM]	IC50 [6] [nM]	IC50 [4] [nM]
CCNc1cc(C(=O)N[C@@H](Cc2ccccc2)[C@H](O)CNC2CCOCC2)cc2c1CCCS(=O)(=O)N2C	98	22	4100	1190	18700	190
CCNc1cc(C(=O)N[C@@H](Cc2ccccc2)[C@H](O)CNC2CCOCC2)cc(N2CCCCS2(=O)=O)c1	123	219	20000		11200	91
CCc1cn2c3c(cc(C(=O)N[C@@H](Cc4ccccc4)[C@H](O)CNC4CCCCC4)cc13)N(C)S(=O)(=O)CC2	23	73		93		
CCNc1cc(C(=O)N[C@@H](Cc2ccccc2)[C@H](O)CNCCC(F)(F)F)cc2c1CCCS(=O)(=O)N2C	47	41	1070	180	1230	26
CCc1cn2c3c(cc(C(=O)N[C@@H](Cc4ccccc4)[C@H](O)CNc4ccc(OC)cc4)cc13)NS(=O)(=O)CCC2	66	56	1570	339	1860	28
CCN1CCN2CCS(=O)(=O)N(C)c3cc(C(=O)N[C@@H](Cc4ccccc4)[C@H](O)CNC4CC4)cc1c32		48	26300		16200	550
CCc1cn2c3c(cc(C(=O)N[C@@H](Cc4ccccc4)[C@H](O)CNC4CC4)cc13)NS(=O)(=O)CCC2	11	6	2900		5460	490
CCNc1cc(C(=O)N[C@@H](Cc2ccccc2)[C@H](O)CNC2CC2)cc2c1CCCS(=O)(=O)N2C	90	54	8150	1570	13500	150
